The source made the active and inactive calls. How the calls were made is not given here.
Tested on: rodent carcinogenicity bioassays, tumor incidence
Assay: CCRIS carcinogenicity studies
Settings: Dose: 0, Dose: 0
Method in brief: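 Archive of carcinogenicity, mutagenicity, tumor promotion and tumor inhibition results drawn from journals, NCI reports and other sources, expert-reviewed; covers 1985-2011 and is no longer updated.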

O=C(CCl)c1ccccc1 was tested, and the carcinogen call (Species: MOUSE, Strain/Sex: B6C3F1/FEMALE, Route: INHALATION, 2, 4 MG/M3 6 HR/D 5 D/WK FOR 103 WK (STUDY DURATION: 105 WK), 2, 4 MG/M3 6 HR/D 5 D/WK FOR 103 WK (STUDY DURATION: 105 WK)) was “inactive; negative”, the carcinogen call (Species: MOUSE, Strain/Sex: B6C3F1/MALE, Route: INHALATION, 2, 4 MG/M3 6 HR/D 5 D/WK FOR 103 WK (STUDY DURATION: 105 WK), 2, 4 MG/M3 6 HR/D 5 D/WK FOR 103 WK (STUDY DURATION: 105 WK)) was “inactive; negative” and the carcinogen call (Species: RAT, Strain/Sex: F344/FEMALE, Route: INHALATION, 1, 2 MG/M3 6 HR/D 5 D/WK FOR 103 WK (STUDY DURATION: 105 WK), 1, 2 MG/M3 6 HR/D 5 D/WK FOR 103 WK (STUDY DURATION: 105 WK), Tumor Site: Type of Lesion: MAMMARY GLAND: FIBROADENOMA) was “equivocal”. The carcinogen call (Species: RAT, Strain/Sex: F344/MALE, Route: INHALATION, 1, 2 MG/M3 6 HR/D 5 D/WK FOR 103 WK (STUDY DURATION: 105 WK), 1, 2 MG/M3 6 HR/D 5 D/WK FOR 103 WK (STUDY DURATION: 105 WK)) was “inactive; negative”.
For C/C(=C(\CCOC(=O)c1ccccc1)SC(=O)c1ccccc1)N(C=O)Cc1cnc(C)nc1N, the carcinogen call (Species: RAT, Strain/Sex: SPRAGUE-DAWLEY/FEMALE, Route: ORAL, 1000, 10000 PPM IN DIET FOR DURATION OF STUDY (STUDY DURATION: 105 WK), 1000, 10000 PPM IN DIET FOR DURATION OF STUDY (STUDY DURATION: 105 WK)) was “inactive; negative” and the carcinogen call (Species: RAT, Strain/Sex: SPRAGUE-DAWLEY/MALE, Route: ORAL, 1000, 10000 PPM IN DIET FOR DURATION OF STUDY (STUDY DURATION: 105 WK), 1000, 10000 PPM IN DIET FOR DURATION OF STUDY (STUDY DURATION: 105 WK)) was “inactive; negative”.
In the case of [Cl][Hg][Cl], the carcinogen call (Species: MOUSE, Strain/Sex: B6C3F1/FEMALE, Route: GAVAGE, 5, 10 MG/KG IN DEIONIZED WATER 5 D/WK FOR 103-104 WK (STUDY DURATION: 104 WK), 5, 10 MG/KG IN DEIONIZED WATER 5 D/WK FOR 103-104 WK (STUDY DURATION: 104 WK)) is reported as “inactive; negative”, the carcinogen call (Species: MOUSE, Strain/Sex: B6C3F1/MALE, Route: GAVAGE, 5, 10 MG/KG IN DEIONIZED WATER 5 D/WK FOR 103-104 WK (STUDY DURATION: 104 WK), 5, 10 MG/KG IN DEIONIZED WATER 5 D/WK FOR 103-104 WK (STUDY DURATION: 104 WK), Tumor Site: Type of Lesion: KIDNEY (RENAL TUBLE): ADENOMA, ADENOCARCINOMA) is reported as “equivocal” and the carcinogen call (Species: MOUSE, Strain/Sex: SWISS/FEMALE, Route: ORAL, 5 PPM (HG) IN DRINKING WATER FOR DURATION OF STUDY (STUDY DURATION: LIFE SPAN)) is reported as “inactive; negative”. For the same compound, the carcinogen call (Species: MOUSE, Strain/Sex: SWISS/MALE, Route: ORAL, 5 PPM (HG) IN DRINKING WATER FOR DURATION OF STUDY (STUDY DURATION: LIFE SPAN)) was “inactive; negative”, the carcinogen call (Species: RAT, Strain/Sex: F344/FEMALE, Route: GAVAGE, 2.5, 5 MG/KG IN DEIONIZED WATER 5 D/WK FOR 103-104 WK (STUDY DURATION: 104 WK), 2.5, 5 MG/KG IN DEIONIZED WATER 5 D/WK FOR 103-104 WK (STUDY DURATION: 104 WK), Tumor Site: Type of Lesion: FORESTOMACH: SQUAMOUS CELL PAPILLOMA) was “equivocal” and the carcinogen call (Species: RAT, Strain/Sex: F344/MALE, Route: GAVAGE, 2.5, 5 MG/KG IN DEIONIZED WATER 5 D/WK FOR 103-104 WK (STUDY DURATION: 104 WK), 2.5, 5 MG/KG IN DEIONIZED WATER 5 D/WK FOR 103-104 WK (STUDY DURATION: 104 WK), Tumor Site: Type of Lesion: THYROID GLAND: FOLLICULAR CELL CARCINOMA, FOLLICULAR CELL CARCINOMA OR ADENOMA, FORESTOMACH: SQUAMOUS CELL PAPILLOMA) was “active; positive”.
O=Nc1cc2c3ccccc3ccc2c2ccccc12 was tested, and the carcinogen call (Species: MOUSE, Strain/Sex: SWISS/FEMALE, Route: INTRAPERITONEAL, 100 NMOL (TOTAL DOSE) 1/7, 2/7 AND 4/7 ADMINISTERED ON DAYS 1, 8 AND 15 OF LIFE RESPECTIVELY (STUDY DURATION: 32 WK), Tumor Site: Type of Lesion: LUNG: TUMOR) was “active; positive” and the carcinogen call (Species: MOUSE, Strain/Sex: SWISS/MALE, Route: INTRAPERITONEAL, 100 NMOL (TOTAL DOSE) 1/7, 2/7 AND 4/7 ADMINISTERED ON DAYS 1, 8 AND 15 OF LIFE RESPECTIVELY (STUDY DURATION: 32 WK), Tumor Site: Type of Lesion: LUNG: TUMOR, LIVER: TUMOR) was “active; positive”.
With O=[N+]([O-])c1ccc2c3c(cccc13)CC2 the carcinogen call (Species: MOUSE, Strain/Sex: B6C3F1/FEMALE, Route: ORAL, 0.05, 0.12% TWA, IN DIET FOR 78 WK (STUDY DURATION: 96 WK), 0.05, 0.12% TWA, IN DIET FOR 78 WK (STUDY DURATION: 96 WK), Tumor Site: Type of Lesion: LIVER: HEPATOCELLULAR CARCINOMA, OVARIES: GRANULOSA CELL TUMOR, LUTEOMA OR TUBULAR CELL ADENOMA) was “active; positive”, the carcinogen call (Species: MOUSE, Strain/Sex: B6C3F1/MALE, Route: ORAL, 0.06, 0.12% TWA, IN DIET FOR 78 WK (STUDY DURATION: 96 WK), 0.06, 0.12% TWA, IN DIET FOR 78 WK (STUDY DURATION: 96 WK)) was “inactive; negative” and the carcinogen call (Species: RAT, Strain/Sex: F344/FEMALE, Route: ORAL, 0.12, 0.24% IN DIET FOR 78 WK (STUDY DURATION: 87-100 WK), 0.12, 0.24% IN DIET FOR 78 WK (STUDY DURATION: 87-100 WK), Tumor Site: Type of Lesion: LUNG: ALVEOLAR/BRONCHIOLAR ADENOMA OR ALVEOLAR/BRONCHIOLAR CARCINOMA, MAMMARY GLAND: ADENOCARCINOMA OR PAPILLARY CYSTADE) was “active; positive”. For the same compound, the carcinogen call (Species: RAT, Strain/Sex: F344/MALE, Route: ORAL, 0.12, 0.24% IN DIET FOR 70-78 WK (STUDY DURATION: 70-100 WK), 0.12, 0.24% IN DIET FOR 70-78 WK (STUDY DURATION: 70-100 WK), Tumor Site: Type of Lesion: LUNG: ALVEOLAR/BRONCHIOLAR ADENOMA OR ALVEOLAR/BRONCHIOLAR CARCINOMA, EAR (EAR CANAL OR SKIN OF EAR): SQUAMOUS CELL CARC) was “active; positive”.
Nc1ccc(N)c2c1C(=O)c1c(N)ccc(N)c1C2=O was tested, and the carcinogen call (Species: MOUSE, Strain/Sex: B6C3F1/FEMALE, Route: ORAL, 600, 1200, 2500 PPM IN DIET FOR 104 WK (STUDY DURATION: 105 WK), 600, 1200, 2500 PPM IN DIET FOR 104 WK (STUDY DURATION: 105 WK)) was “inactive; negative”, the carcinogen call (Species: MOUSE, Strain/Sex: B6C3F1/MALE, Route: ORAL, 600, 1200, 2500 PPM IN DIET FOR 104 WK (STUDY DURATION: 105 WK), 600, 1200, 2500 PPM IN DIET FOR 104 WK (STUDY DURATION: 105 WK), Tumor Site: Type of Lesion: LIVER: HEPATOCELLULAR ADENOMA OR CARCINOMA, LUNG: ALVEOLAR/BRONCHIOLAR ADENOMA OR CARCINOMA) was “equivocal” and the carcinogen call (Species: RAT, Strain/Sex: F344/FEMALE, Route: ORAL, 1250, 2500, 5000 PPM IN DIET FOR 103 WK (STUDY DURATION: 105 WK), 1250, 2500, 5000 PPM IN DIET FOR 103 WK (STUDY DURATION: 105 WK), Tumor Site: Type of Lesion: URINARY BLADDER: SQUAMOUS CELL PAPILLOMA, SQUAMOUS CELL CARCINOMA, TRANSITIONAL CELL PAPILLOMA, TRANSITIONAL CELL CARCIN) was “active; positive”. For the same compound, the carcinogen call (Species: RAT, Strain/Sex: F344/MALE, Route: ORAL, 1250, 2500, 5000 PPM IN DIET FOR 103 WK (STUDY DURATION: 105 WK), 1250, 2500, 5000 PPM IN DIET FOR 103 WK (STUDY DURATION: 105 WK), Tumor Site: Type of Lesion: URINARY BLADDER: SQUAMOUS CELL PAPILLOMA, SQUAMOUS CELL PAPILLOMA OR CARCINOMA, TRANSITIONAL CELL PAPILLOMA, TRANSITIONA) was “active; positive”.
